≈ marks a conversion by molar mass, not a printed value.
Legend:
Format in all cases: biochemical
[1] = target: T1, HGVPLA2 (human group V PLA2) (Homo sapiens, UniProt P39877); test: enzyme inhibition, Cayman kit
T1 construct: gene PLA2G5; commercial assay, Cayman Chemical
T1 sequence (P39877 21-138): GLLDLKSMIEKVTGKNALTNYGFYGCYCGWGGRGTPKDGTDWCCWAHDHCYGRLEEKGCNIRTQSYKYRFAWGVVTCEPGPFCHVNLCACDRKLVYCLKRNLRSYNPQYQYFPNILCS
From the text: enzyme inhibition, Cayman kit on HGVPLA2 (human group V PLA2)

[2] = target: T2, BPPLA2 (bovine pancreas PLA2) (Bos taurus, UniProt P00593); test: enzyme inhibition, Cayman kit
T2 construct: gene PLA2G1B; native pancreatic enzyme, purchased from Sigma-Aldrich
From the text: enzyme inhibition, Cayman kit on BPPLA2 (bovine pancreas PLA2)

[3] = target: T3, LOX 15HRC (Lipoxygenase 15hrc); test: enzyme inhibition, Cayman kit; details: per manufacturer's instructions
T3 construct: gene ALOX15; commercial, Cayman Chemical
From the text: enzyme inhibition, Cayman kit on LOX 15HRC (Lipoxygenase 15hrc)

COX-2 (cyclooxygenase-2) = target: T4, COX-2 (cyclooxygenase-2); test: enzyme inhibition, Cayman kit; details: per manufacturer's instructions
T4 construct: gene PTGS2; commercial, Cayman Chemical
From the text: enzyme inhibition, Cayman kit on COX-2 (cyclooxygenase-2)

Apis = Apis (Apis mellifera, UniProt P00630)
Sequence of Apis (P00630 34-167 limits assumed): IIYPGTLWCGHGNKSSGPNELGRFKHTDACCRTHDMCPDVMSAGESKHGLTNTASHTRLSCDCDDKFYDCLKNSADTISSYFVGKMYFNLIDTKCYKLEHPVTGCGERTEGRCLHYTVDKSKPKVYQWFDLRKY

T2 sequence (P00593 23-145): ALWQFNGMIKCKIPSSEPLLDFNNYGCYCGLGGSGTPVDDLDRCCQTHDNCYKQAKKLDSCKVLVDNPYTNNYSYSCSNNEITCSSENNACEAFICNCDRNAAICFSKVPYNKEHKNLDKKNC

Row | SMILES | IC50 [1] | IC50 [2] | IC50 [3] | IC50 (COX-2 (cyclooxygenase-2)) | hydrolysis, A425 (Apis)
1 | CC1(C)Oc2cc3occ(-c4ccc5c(c4)OCO5)c(=O)c3c(O)c2C[C@H]1O [harpalycin 2] | 71.7 µM | 31.1 µM | 55.96 µg/mL (≈ 146 µM) | 32.73 µg/mL (≈ 85.6 µM) | 
2 | CCCCCCCC(=O)Oc1cc(C(=O)O)ccc1[N+](=O)[O-] [4-nitro-3-octanoyloxy-benzoic acid] |  |  |  |  | as a direct result of the cleavage of the synthetic substrate
